Reference: patent US7645738B2, “18-membered nitrobenzyl- and aminobenzyl-substituted cyclohexadepsipeptides for controlling endoparasites and a process for their preparation” (Bayer Animal Health GmbH, priority 2003, dated 2010)

Experiments:
[1] = test system: Trichostrongylus colubriformis; test: In vivo nematode test Trichostrongylus colubriformis/sheep; conditions: sheep experimentally infected with Trichostrongylus colubriformis; applied orally and/or intravenously as pure active compound; complete cessation of egg excretion after treatment
Description: Trichostrongylus colubriformis/sheep
Sheep which had been experimentally infected with Trichostrongylus colubriformis were treated after the prepotency time of the parasite had elapsed. The active compounds were applied orally and/or intravenously as pure active compound.
(§1) The degree of effectiveness is determined by quantitatively counting the worm eggs which have been excreted with the faeces before and after the treatment.
(§2) A complete cessation of egg excretion after the treatment means that the worms have been aborted or damaged to such an extent that they no longer produce eggs (dosis effectiva).
(§3) Active compounds tested and effective dosage rates (dosis effectiva) can be seen from the table which follows.

log P value from HPLC = assay type: physicochemical; conditions: 0.1% phosphoric acid/acetonitrile gradient
Description: HPLC (0.1% phosphoric acid/acetonitrile; gradient: 90/10 (1) 5%/min, 5/95 (6); flow rate: 1.5 mil/min; UV: 210 nm): Rt=12.57 min; log P value 3.58.

Haemonchus contortus = test: In vivo nematode test Haemonchus contortus/sheep; conditions: sheep experimentally infected with Haemonchus contortus; applied orally and/or intravenously as pure active compound; complete cessation of egg excretion after treatment
Description: Haemonchus contortus/sheep
Sheep which had been experimentally infected with Haemonchus contortus were treated after the prepotency time of the parasite had elapsed. The active compounds were applied orally and/or intravenously as pure active compound.
as §1, §2, §3

Row | SMILES | Effective dosage (dosis effectiva) [1] [mg/kg] | chromatographic logP (log P value from HPLC) | Effective dosage (dosis effectiva) (Haemonchus contortus) [mg/kg] | melting point [°C]
1 | CCC(C)[C@H]1C(=O)O[C@H](Cc2ccc(N3CCOCC3)cc2)C(=O)N(C)[C@@H](C(C)CC)C(=O)O[C@H](C)C(=O)N(C)[C@@H](C)C(=O)O[C@H](C)C(=O)N1C (stereo partly drawn) [Example I-1, Cyclo(-N-methyl-L-alanyl-D-lactyl-N-methyl-L-isoleucyl-D-4-morpholino-phenyllactyl-N-methyl-L-isoleucyl-D-lactyl-)] | 0.25 | 3.58 | 0.10 | 
2 | CCC(C)[C@H]1C(=O)O[C@H](Cc2ccc(NCCS(=O)(=O)CCO)cc2)C(=O)N(C)[C@@H](C(C)CC)C(=O)O[C@H](C)C(=O)N(C)[C@@H](C)C(=O)O[C@H](C)C(=O)N1C (stereo partly drawn) [Example I-2, Cyclo(-N-methyl-L-alanyl-D-lactyl-N-methyl-L-isoleucyl-D-4-(2-hydroxyethyl-sulphonyl-ethylamino-phenyl)lactyl-N-methyl-L-isoleucyl-D-lactyl-)] |  |  | 0.10 | 
3 | CCC(C)[C@H]1C(=O)O[C@H](Cc2ccccc2)C(=O)N(C)[C@@H](C(C)CC)C(=O)O[C@H](C)C(=O)N(C)[C@@H](C)C(=O)O[C@H](C)C(=O)N1C (stereo partly drawn) [Example II-1, Cyclo(-N-methyl-L-alanyl-D-lactyl-N-methyl-L-isoleucyl-D-phenyllactyl-N-methyl-L-isoleucyl-D-lactyl-)] |  | 4.23 |  | 
4 | CCC(C)[C@H]1C(=O)O[C@H](Cc2ccc([N+](=O)[O-])cc2)C(=O)N(C)[C@@H](C(C)CC)C(=O)O[C@H](C)C(=O)N(C)[C@@H](C)C(=O)O[C@H](C)C(=O)N1C (stereo partly drawn) [Example III-1, Cyclo(-N-methyl-L-alanyl-D-lactyl-N-methyl-L-isoleucyl-D-4-nitro-phenyllactyl-N-methyl-L-isoleucyl-D-lactyl-)] |  |  |  | 122 to 126
5 | CCC(C)C1C(=O)OC(Cc2ccccc2N)C(=O)N(C)C(C(C)CC)C(=O)OC(C)C(=O)N(C)C(C)C(=O)OC(C)C(=O)N1C [Example IV-1, Cyclo(-N-methyl-L-alanyl-D-lactyl-N-methyl-L-isoleucyl-D-2-amino-phenyllactyl-N-methyl-L-isoleucyl-D-lactyl-)] |  |  | 0.05 | 
6 | CC[C@H](C)[C@H]1C(=O)O[C@H](Cc2cccc(N)c2)C(=O)N(C)[C@@H]([C@@H](C)CC)C(=O)O[C@H](C)C(=O)N(C)[C@@H](C)C(=O)O[C@H](C)C(=O)N1C [Example IV-2, Cyclo(-N-methyl-L-alanyl-D-lactyl-N-methyl-L-isoleucyl-D-3-amino-phenyllactyl-N-methyl-L-isoleucyl-D-lactyl-)] | 0.25 |  | 0.05 | 
